A short description of assay [1]: Enhancing memory in rats, 8-arm radial maze learning paradigm. Type of assay: in vivo, rat. To be noted: for minimal effective dose: Rattus norvegicus, rats, read-out: Behavioral Dose (threshold dose for enhancing memory); for in vivo enhancement by rotational restriction vs. corresponding rotomer: figure: threshold dose.
For the next assay, the system named is AMPA receptors. The assay is described as follows: In vitro physiological testing: field EPSPs in rat hippocampal slices (CA1). Type of assay: cell-based, rat (Sprague-Dawley). To be noted: for in vitro enhancement by rotational restriction vs. corresponding rotomer: figure: +50% half-width, vs. substituted benzoyl piperidine rotomers; for +25% Amplitude (estimated concentration required to increase the amplitude of the EPSP to 25% above baseline) / +50% Half-Width (estimated concentration required to increase the width of the EPSP at half-height by 50%): rat hippocampal slice, 35° C., about 15 min perfusion, estimated by interpolation in most cases, extrapolation for others. How it is done:
In Vitro Physiological Testing
The physiological effects of the compounds of this invention were determined in vitro with slices of rat hippocampus by measuring excitatory responses (field EPSPs) in hippocampal slices maintained in a recording chamber continuously perfused with artificial cerebrospinal fluid (ACSF). During a 15-30 minute interval, the perfusion medium was switched to one containing various concentrations of the test compounds. Responses collected immediately before and at the end of drug perfusion were superimposed in order to calculate both the percent increase in EPSP amplitude and percent increase in the width of the response at one-half the peak height (half-width).
To conduct these tests, the hippocampus was removed from anesthetized, 2 month old Sprague-Dawley rats, and in vitro slices (400 micrometers thick) were prepared and maintained in an interface chamber at 35° C. using conventional techniques. this is the procedure used by Dunwiddie and Lynch, J. Physiol. […] A bipolar nichrome stimulating electrode was positioned in the dendritic layer (stratum radiatum) of the hippocampal subfield CA1 close to the border of subfield CA3.
Current pulses (0.1 msec) through the stimulating electrode activated a population of the Schaffer-commissural (SC) fibers which arise from neurons in the subdivision CA3 and terminate in synapses on the dendrites of CA1 neurons. Activation of these synapses causes them to release the transmitter glutamate. Glutamate binds to the post-synaptic AMPA receptors which then transiently open an associated ion channel and permit a sodium current to enter the postsynaptic cell. This current results in a voltage in the extracellular space (the field excitatory post-synaptic potential or field "EPSP") which is recorded by a high impedance recording electrode positioned in the middle of the stratum radiatum of CA1.
For the experiments summarized in the table below, the intensity of the stimulation current was adjusted to produce half-maximal EPSPs (typically about 1.5-2.0 mV). Paired stimulation pulses were given every 40 seconds with an interpulse interval of 200 msec. The field EPSPs of the second response were digitized and analyzed to determine amplitude, half-width, and response area. If the responses were stable for 15-30 minutes (baseline), test compounds were added to the perfusion lines for a period of about 15 minutes. The perfusion was then changed back to regular ACSF.
Paired-pulse stimulation was used since stimulation of the SC fibers in part activates interneurons which generate an inhibitory postsynaptic potential (IPSP) in the pyramidal cells of CA1. This feed-forward IPSP typically sets in after the EPSP reaches its peak. The feed-forward IPSP accelerates the repolarization and shortens the decay phase of the EPSP, and thus could partially mask the effects of the test compounds. One of the relevant features of the feed-forward IPSP is that it cannot be reactivated for several hundred milliseconds following a stimulation pulse. This phenomenon can be employed to advantage to eliminate IPSP by delivering paired pulses separated by 200 milliseconds and using the second ("primed") response for data analysis.
The compounds of the invention were assayed in the physiological test system described above for the generation of data presented in the table below. […] Values have been estimated by interpolation in most cases, but by extrapolation from determined values for others.

The next assay deals with AMPA receptor. In words: In vitro hippocampal patch preparation, effect on AMPA receptor function. Type of assay: cell-based. To be noted: Chiralpak AD, hexane/50% isopropanol. How it is done: This isomer was determined to be the (+)-enantiomer.
For assay [2] the following is noted: metabolite of aniracetam; cited from earlier work.

Bounds are passed on as bounds.

For the compound `O=C1c2cc3c(cc2OC2CCCN12)OCO3` (racemic) [Compound I, (R,S)-1,3-Dioxolo[4,5-g]-2,3-dihydro-1H-pyrrolo[2,1-b][1,3]benzoxazine-10(3aH)-one], in assay [1], the minimal effective dose worked out at 1 mg/kg and the “in vivo enhancement by rotational restriction vs. corresponding rotomer” value is “marked enhancement”. In the assay with AMPA receptors, the “in vitro enhancement by rotational restriction vs. corresponding rotomer” value is “marked enhancement”, the “+25% Amplitude (estimated concentration required to increase the amplitude of the EPSP to 25% above baseline)” value is 0.1 mM and the “+50% Half-Width (estimated concentration required to increase the width of the EPSP at half-height by 50%)” value is recorded as 0.05 mM.
As to `O=C1c2cc3c(cc2OC2CCCCN12)OCO3` (racemic) [Compound II, (R,S)-1,3-Dioxolo[4,5-g]-1,2,3,4-tetrahydropyrido[2,1-b][1,3]benzoxazine-11(4aH)-one], in the assay with AMPA receptors, the “+25% Amplitude (estimated concentration required to increase the amplitude of the EPSP to 25% above baseline)” value is listed as 0.3 mM and the “+50% Half-Width (estimated concentration required to increase the width of the EPSP at half-height by 50%)” value is 0.2 mM.
`O=C1c2cc3c(cc2OC2CCCN12)OCCO3` (racemic) [Compound III, (R,S)-1,4-Dioxan[2,3-g]-2,3-dihydro-1H-pyrrolo[2,1-b][1,3]benzoxazine-11(3aH)-one]: in assay [1], the “potency in the behavioral task vs. corresponding rotomer and other ampakines of WO 94/02475” value is recorded as “ten times more potent”; the minimal effective dose stood at 0.1 mg/kg; the “in vivo enhancement by rotational restriction vs. corresponding rotomer” value is recorded as “marked enhancement”. Moreover, in the assay with AMPA receptors, the “in vitro enhancement by rotational restriction vs. corresponding rotomer” value is “marked enhancement”, the “+25% Amplitude (estimated concentration required to increase the amplitude of the EPSP to 25% above baseline)” value is more than 0.03 mM and the “+50% Half-Width (estimated concentration required to increase the width of the EPSP at half-height by 50%)” value is given as 0.02 mM.
Turning to `COc1ccc2c(c1)OC1CCCN1C2=O` (racemic) [Compound IV, (R,S)-6-Methoxy-2,3-dihydro-1H-pyrrolo[2,1-b][1,3]benzoxazine-9(3aH)-one], in the assay on AMPA receptors, the “+25% Amplitude (estimated concentration required to increase the amplitude of the EPSP to 25% above baseline)” value is more than 1 mM and the “+50% Half-Width (estimated concentration required to increase the width of the EPSP at half-height by 50%)” value was 0.4 mM.
For `COc1ccc2c(c1)C(=O)N1CCCC1O2` (racemic) [Compound V, (R,S)-7-Methoxy-2,3-dihydro-1H-pyrrolo[2,1-b][1,3]benzoxazine-9(3aH)-one], in the assay with AMPA receptors, the “+25% Amplitude (estimated concentration required to increase the amplitude of the EPSP to 25% above baseline)” value was 1 mM and the “+50% Half-Width (estimated concentration required to increase the width of the EPSP at half-height by 50%)” value is on record as 0.25 mM.
In the case of `O=C1c2cc3nccnc3cc2OC2CCCN12` (racemic) [Compound VI, (R,S)-Pyrazino[2,3-g]-2,3-dihydro-1H-pyrrolo[2,1-b][1,3]benzoxazine-11(3aH)-one], in assay [1], the minimal effective dose was 2 mg/kg and the “in vivo enhancement by rotational restriction vs. corresponding rotomer” value was “marked enhancement”. Also, in the assay on AMPA receptors, the “in vitro enhancement by rotational restriction vs. corresponding rotomer” value is “marked enhancement”, the “+25% Amplitude (estimated concentration required to increase the amplitude of the EPSP to 25% above baseline)” value is recorded as 0.1 mM and the “+50% Half-Width (estimated concentration required to increase the width of the EPSP at half-height by 50%)” value is 0.1 mM.
In the case of `O=C1c2cc3nccnc3cc2OC2CCCCN12` (racemic) [Compound VII, (R,S)-Pyrazino[2,3-g]-1,2,3,4-tetrahydropyrido[2,1-b] [1,3] benzoxazine-12(4aH)-one], in the assay on AMPA receptors, the “+25% Amplitude (estimated concentration required to increase the amplitude of the EPSP to 25% above baseline)” value is 0.4 mM and the “+50% Half-Width (estimated concentration required to increase the width of the EPSP at half-height by 50%)” value was 0.3 mM.
For `COc1ccc2c(c1)C(=O)N1CCCC1(C)O2` (racemic) [Compound VIII, (R,S)-7-Methoxy-3a-methyl-2,3-dihydro-1H-pyrrolo[2,1-b][1,3]benzoxazine-9-one] the same measures were more than 0.3 mM and 0.4 mM.
For the compound `O=C1c2cc3c(cc2OC2CCCN12)OCO3` (single isomer, unassigned) [first eluting enantiomer], the “activity of first eluting enantiomer relative to second eluting enantiomer (effect on EPSP)” value with AMPA receptors (Chiralcel OD, hexane/10% isopropanol, in vitro hippocampal slice) was “at least 10 -fold”.
`O=C1c2cc3c(cc2OC2CCCN12)OCCO3` (single isomer, unassigned) [second eluting enantiomer]: the “activity of second eluting enantiomer relative to first eluting enantiomer (effect on AMPA receptor function)” value with AMPA receptor is reported as “at least 10 -fold”.
`COc1ccc(C(=O)NCCCC(=O)O)cc1` [anisoyl-GABA]: in assay [2], the aniracetam-like effects result was “no aniracetam-like effects”.
